Assay results reported in patent publication US20140296265A1, “Method of Treating Lymphoma Using Pyridopyrimidinone Inhibitors of PI3K/mTOR” (Sanofi, priority 2011, published 2014).

Columns and labels:
PI3K and MAPK pathways = experiment: Pharmacodynamic analyses in paired tumor tissue: phospho-markers; format: in vivo, human; conditions: for % Decrease p4EBP1T70 / % Decrease pAKTS473 / % Decrease pAKTT308 / % Decrease pERKT202/Y204: Mantle Cell Lymphoma, 50 mg BID, PTEN-def
Protocol: (§1) The secondary objectives were to determine (a) the plasma pharmacokinetics of Compound A continuous daily dosing; and (b) the pharmacodynamic effects of Compound A on tumor tissue. […] This finding is also reflected in FIG. 3, which depicts PTEN IHC and Ki67 IF staining of lymphoma tumor cells treated with Compound A. PTEN expression was evaluated by immunohistochemistry in formalin fixed, paraffin-embedded tissue sections FFPE (5 micron) with anti-PTEN antibody (NCL-PTEN, clone 28H6, diluted 1/300, Novocastra Laboratories Ltd) utilizing standardized procedures. Cryopreserved tumor biopsy samples were serially sectioned at 5 microns and converted in FFPE sections.

[1] = human, in vivo, 50 mg, 27 day
Text: The secondary objectives were to determine (a) the plasma pharmacokinetics of Compound A continuous daily dosing; and (b) the pharmacodynamic effects of Compound A on tumor tissue.

[2] = test system: mantle cell lymphoma tumor; experiment: Pharmacodynamic analyses in paired tumor tissue: Ki67 and TUNEL; format: in vivo, human
Protocol: as §1

[3] = Phase 1 dose-expansion lymphoma cohort: safety and tolerability; format: in vivo, human
Text: The following phase 1 study was designed to evaluate the safety and pharmacokinetics of Compound A administered as a continuous daily dosing regimen in an expansion cohort of subjects with relapsed or refractory lymphoma.
(§2) This was a Phase 1, open-label, non-randomized trial of Compound A given orally as a single agent in subjects with lymphoma. The maximum tolerated dose expansion cohort planned enrollment was at least 15 subjects.
The primary objective was to determine the safety and tolerability of Compound A administered orally, twice daily, as a continuous daily dosing regimen to subjects with relapsed or refractory lymphoma.
(§3) The key eligibility include the following: • Histologically confirmed diagnosis of relapsed or refractory lymphoma • Measureable disease • Adequate bone marrow function defined as: • ANC≧1000/mm3 (chronic lymphocytic leukemia with ANC≧500/mm3) • Platelets≧30,000/mm3 • Hemoglobin≧8 g/dL • Availability of archival or fresh tumor tissue • No prior therapy with a selective PI3K inhibitor • Written informed consent.

[4] = test system: relapsed or refractory lymphoma; experiment: Phase 1 dose-expansion lymphoma cohort: best response; format: in vivo, human
Text: as §2
The exploratory objectives were to determine (a) the pharmacodynamic effects of Compound A in subjects with lymphoma; (b) the preliminary efficacy data (response rate) for Compound A; and (c) the long-term safety and tolerability of Compound A after repeated twice daily administration.
as §3

[5] = test system: PI3K and ERK pathway signaling; experiment: Phase 1 dose-escalation study: pharmacodynamics in paired tumor biopsies; format: in vivo, human
Protocol: (§4) A Phase I, non-randomized, open-label, dose-escalation study was conducted for Compound A using two dosing schedules to evaluate the safety, PK, and pharmacodynamics of Compound A in subjects with solid tumors or lymphoma.
(§5) Patients received 5, 10 or 50 mg of Compound A either twice daily (bid) or daily (qd) for 28-day cycles. Pharmacokinetics and pharmacodynamic analyses were performed, and tumor response was assessed every 8 weeks.

[6] = Phase 1 dose-escalation study: safety and tolerability (MTD, adverse events); format: in vivo
Protocol: as §4
Patients were treated with a conventional ‘3+3’ dose-escalation design with cohorts of three to six subjects for up to nine different dose levels on each dosing schedule.
as §5

[7] = Phase 1 dose-escalation study: plasma pharmacokinetics; format: in vivo, human
Protocol: as §4, §5

solid tumors or lymphoma = experiment: Phase 1 dose-escalation study: tumor response; format: in vivo, human
Protocol: as §4, §5

[8] = Mantle Cell Lymphoma, 50 mg BID, D 56 post dose, PTEN-def
[9] = lymphoma cohort, sixteen subjects
[10] = Diffuse Large B-cell Lymphoma, n 2, twice daily continuous dosing
[11] = Follicular Lymphoma, n 4, twice daily continuous dosing
[12] = Mantle Cell Lymphoma, n 5, twice daily continuous dosing
[13] = paired biopsies of diverse solid tumors, five patients, 50 mg bid

## CCn1c(=O)c(-c2ccn[nH]2)cc2c(C)nc(N)nc21 [Compound A, 2-amino-8-ethyl-4-methyl-6-(1H-pyrazol-5-yl)pyrido[2,3-d]pyrimidin-7(8H)-one]
PI3K and MAPK pathways; D 27 post dose
  % Decrease p4EBP1T70: 60%
  % Decrease pAKTS473: 70%
  % Decrease pAKTT308: 65%
  % Decrease pERKT202/Y204: 15%
PI3K and MAPK pathways; D 56 post dose
  % Decrease p4EBP1T70: 60%
  % Decrease pAKTS473: 73%
  % Decrease pAKTT308: 88%
  % Decrease pERKT202/Y204: 74%
PI3K and MAPK pathways; mantle cell lymphoma tumor
  inhibition of the PI3K and MAPK pathways: robust inhibition of the PI3K and MAPK pathways
[1]
  accumulation (AUCtau) on day 27: approximately 3 fold
[2]; Mantle Cell Lymphoma, 50 mg BID, D 27 post dose, PTEN-def
  % Decrease Ki67: 98%
[2]; [8]
  % Decrease Ki67: 99%
  TUNEL (fold increase): 1.5 fold
[2]; mantle cell lymphoma tumor
  inhibition of Ki67 proliferation: near complete inhibition of Ki67 proliferation
[3]; human, in vivo
  ALT increased, All Adverse Events, All Grades: 3 (19) n (%)
  ALT increased, All Adverse Events, Grade ≧ 3: 2 (13) n (%)
  ALT increased, Related Adverse Events, All Grades: 3 (19) n (%)
  ALT increased, Related Adverse Events, Grade ≧ 3: 2 (13) n (%)
  AST increased, All Adverse Events, All Grades: 4 (25) n (%)
  AST increased, All Adverse Events, Grade ≧ 3: 0 n (%)
  AST increased, Related Adverse Events, All Grades: 3 (19) n (%)
  AST increased, Related Adverse Events, Grade ≧ 3: 0 n (%)
  Anemia, All Adverse Events, All Grades: 3 (19) n (%)
  Anemia, All Adverse Events, Grade ≧ 3: 2 (13) n (%)
  Anemia, Related Adverse Events, All Grades: 1 (6) n (%)
  Anemia, Related Adverse Events, Grade ≧ 3: 0 n (%)
  Asthenia, All Adverse Events, All Grades: 3 (19) n (%)
  Asthenia, All Adverse Events, Grade ≧ 3: 2 (13) n (%)
  Asthenia, Related Adverse Events, All Grades: 0 n (%)
  Asthenia, Related Adverse Events, Grade ≧ 3: 0 n (%)
  Creatinine increased, All Adverse Events, All Grades: 3 (19) n (%)
  Creatinine increased, All Adverse Events, Grade ≧ 3: 0 n (%)
  Creatinine increased, Related Adverse Events, All Grades: 0 n (%)
  Creatinine increased, Related Adverse Events, Grade ≧ 3: 0 n (%)
  Diarrhea, All Adverse Events, All Grades: 6 (38) n (%)
  Diarrhea, All Adverse Events, Grade ≧ 3: 0 n (%)
  Diarrhea, Related Adverse Events, All Grades: 3 (19) n (%)
  Diarrhea, Related Adverse Events, Grade ≧ 3: 0 n (%)
  Discontinuations of treatment: Adverse event: 2 (13) n (%)
  Dose modification due to treatment-related toxicities: AST/ALT increase: 2 (40) n (%)
  Dose modification due to treatment-related toxicities: Amylase increase: 1 (20) n (%)
  Dose modification due to treatment-related toxicities: Nausea: 2 (40) n (%)
  Fatigue, All Adverse Events, All Grades: 3 (19) n (%)
  Fatigue, All Adverse Events, Grade ≧ 3: 1 (6) n (%)
  Fatigue, Related Adverse Events, All Grades: 1 (6) n (%)
  Fatigue, Related Adverse Events, Grade ≧ 3: 0 n (%)
  Hyperglycemia, All Adverse Events, All Grades: 3 (19) n (%)
  Hyperglycemia, All Adverse Events, Grade ≧ 3: 0 n (%)
  Hyperglycemia, Related Adverse Events, All Grades: 1 (6) n (%)
  Hyperglycemia, Related Adverse Events, Grade ≧ 3: 0 n (%)
  Nausea, All Adverse Events, All Grades: 5 (31) n (%)
  Nausea, All Adverse Events, Grade ≧ 3: 0 n (%)
  Nausea, Related Adverse Events, All Grades: 5 (31) n (%)
  Nausea, Related Adverse Events, Grade ≧ 3: 0 n (%)
  Patients requiring dose modification due to toxicity: 12 (75) n (%)
  Patients requiring dose modification due to treatment-related toxicities: 5 (31) n (%)
  Pyrexia, All Adverse Events, All Grades: 4 (25) n (%)
  Pyrexia, All Adverse Events, Grade ≧ 3: 0 n (%)
  Pyrexia, Related Adverse Events, All Grades: 0 n (%)
  Pyrexia, Related Adverse Events, Grade ≧ 3: 0 n (%)
[3]; in vivo
  Discontinuations of treatment: 14 (88) n (%)
  tolerability: well tolerated
[3]; [9]
  Discontinuations of treatment: Death (unrelated to study drug): 1 (6) n (%)
  Discontinuations of treatment: Progressive disease: 8 (50) n (%)
[4]; [10]
  Best Response: subjects with Partial Response: 1
  Best Response: subjects with Progressive Disease: 1
[4]; [11]
  Best Response: subjects with Progressive Disease: 1
  Best Response: subjects with Stable Disease: 3
[4]; Hodgkin's Lymphoma, n 1, twice daily continuous dosing
  Best Response: subjects with Stable Disease: 1
[4]; [12]
  Best Response: subjects with Partial Response: 1^b
  Best Response: subjects with Progressive Disease: 1
  Best Response: subjects with Stable Disease: 3 c
[4]; Transformed Lymphoma, n 1, twice daily continuous dosing
  Best Response: subjects with Partial Response: 1 days
[5]; [13]
  post-dose reduction in p4EBP1: 62-80%
  post-dose reduction in pAKT-T308: 57-71%
  post-dose reduction in pERK: 53-80%
[5]; tumors and surrogate tissues, repeat-dose administration
  pharmacodynamic modulation of PI3K and ERK pathway signaling: Robust pharmacodynamic modulation
[6]; bid schedule
  maximum tolerated dose (MTD): 50 mg
[6]; in vivo
  most common related adverse events: nausea, diarrhea, anorexia, elevated liver enzymes, skin and subcutaneous disorders, and vomiting
  tolerability: generally well-tolerated
[6]; qd schedule
  maximum tolerated dose (MTD): 90 mg
[7]; bid and qd schedules
  exposure versus dose: increase with increasing dose
[7]; human, plasma, oral, at steady-state, read-out: Mean t1/2,z
  half-life: 3 to 9 h
[7]; human, plasma, oral, post-dose, read-out: Median tmax
  Tmax: 1 to 3 h
Solid tumors or lymphoma; in vivo
  patients on study for ≧16 weeks: Eleven
  patients on treatment for ≧24 weeks: seven
Solid tumors or lymphoma; one patient with mantle cell lymphoma, treated for 12 cycles
  tumor response: one partial response in MCL
Solid tumors or lymphoma; solid tumor patients
  activity in solid tumor patients: prolonged disease stabilization
